Laboratory results reported in patent publication US20240150367A1, “NITROGEN-CONTAINING SPIRO CYCLIC COMPOUNDS AND PHARMACEUTICAL USE THEREOF” (Japan Tobacco Inc., priority 2009, published 2024).

What was measured:
[1] = molecular target: hJAK3 kinase domain (aa781-end) (Homo sapiens (Human), UniProt P52333); test: JAK3 activity inhibition, kinase reaction (Test 1); conditions: for inhibition at 1 µM: read-out: JAK3 % Inhibition; for IC50: read-out: JAK3 IC50
Procedure: JAK3 activity inhibitory effects of test compounds were evaluated by the following kinase reactions.
In the kinase reactions, fused proteins (6His tag-fused hJAK3 kinase domain (aa781-end)) which were coexpressed in Sf21 cells and purified by Ni2+/NTA agarose were used.
A well in which ATP was not added was set out as a blank well.
Plates were let stand at room temperature for 10 minutes from starting reactions.
One hour after the addition of the buffer for detection, fluorescence counts of each well were measured by a fluorescence microplate reader.
Data were obtained by deducting the average Ratio of a blank well from Ratio of each well.

[2] = molecular target: hJAK2 kinase domain (aa808-end) (Homo sapiens (Human), UniProt O60674); test: JAK2 activity inhibition, kinase reaction (Test 2); assay type: biochemical
Chain of hJAK2 kinase domain (aa808-end) (O60674 808-1132 limits assumed): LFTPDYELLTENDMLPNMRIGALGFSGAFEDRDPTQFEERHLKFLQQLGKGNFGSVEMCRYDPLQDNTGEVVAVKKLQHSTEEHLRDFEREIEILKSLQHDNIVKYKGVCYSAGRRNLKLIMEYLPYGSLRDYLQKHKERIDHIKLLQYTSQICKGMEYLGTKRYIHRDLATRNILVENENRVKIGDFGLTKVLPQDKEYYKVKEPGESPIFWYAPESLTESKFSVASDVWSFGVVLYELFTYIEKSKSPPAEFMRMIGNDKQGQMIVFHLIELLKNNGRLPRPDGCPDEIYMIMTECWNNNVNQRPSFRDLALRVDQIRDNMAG

Chain of hJAK3 kinase domain (aa781-end) (P52333 781-1124 limits assumed): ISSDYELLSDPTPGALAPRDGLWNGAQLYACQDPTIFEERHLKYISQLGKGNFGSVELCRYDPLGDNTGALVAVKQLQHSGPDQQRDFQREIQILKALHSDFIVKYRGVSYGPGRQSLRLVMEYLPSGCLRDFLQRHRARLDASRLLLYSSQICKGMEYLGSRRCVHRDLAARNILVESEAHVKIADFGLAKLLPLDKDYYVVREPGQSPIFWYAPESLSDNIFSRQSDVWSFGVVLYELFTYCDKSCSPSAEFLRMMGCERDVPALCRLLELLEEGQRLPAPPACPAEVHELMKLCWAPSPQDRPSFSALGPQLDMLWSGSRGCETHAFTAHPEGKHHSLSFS

SMILES	IC50 [1]	further results
N#CC1CCN(C(=O)N2CCCC23CCN(c2ncnc4[nH]ccc24)C3)C1 (racemic) [Compound 51]	–	inhibition at 1 µM [1]: 41%
c1nc(N2CCCC3(CCCCCN3)C2)c2cc[nH]c2n1 (racemic) [Compound 75]	–	inhibition at 1 µM [1]: 1%
c1nc(N2CCC3(CCCCN3)C2)c2cc[nH]c2n1 (racemic) [Compound 79]	–	inhibition at 1 µM [1]: 38%
CC(=O)N1CCCC12CCN(c1ncnc3[nH]ccc13)C2 (racemic) [Compound 87]	–	inhibition at 1 µM [1]: 39%
N#CCC(=O)N1CCCC12CCCN(c1c(Cl)cnc3[nH]ncc13)C2 (racemic) [Compound 91]	–	inhibition at 1 µM [1]: 42%
CC1CN(C(=O)CC#N)C12CCCN(c1ncnc3[nH]ccc13)C2 (single isomer, unassigned) [Compound 1, 3-[3-methyl-6-(7H-pyrrolo[2,3-d]pyrimidin-4-yl)-1,6-diazaspiro[3.5]non-1-yl]-3-oxopropionitrile]	–	IC50 [2]: 1 nM
CC1CN(C(=O)CC#N)C12CCCN(c1ncnc3[nH]ccc13)C2 (single isomer, unassigned) [Compound 2, 3-[3-methyl-6-(7H-pyrrolo[2,3-d]pyrimidin-4-yl)-1,6-diazaspiro[3.5]non-1-yl]-3-oxopropionitrile]	–	IC50 [2]: 1.7 nM
CC(O)C(=O)N1CCCC12CCCN(c1ncnc3[nH]ccc13)C2 (single isomer, unassigned) [Compound 30]	580 nM	–
CC1CC2(CCCN2C(=O)CC#N)CN1c1ncnc2[nH]ccc12 (single isomer, unassigned) [Compound 33]	480 nM	–
CC(O)C(=O)N1CCCC12CCCN(c1ncnc3[nH]ccc13)C2 (single isomer, unassigned) [Compound 36]	150 nM	–
CC1CC2(CCCN2C(=O)CC#N)CN1c1ncnc2[nH]ccc12 (single isomer, unassigned) [Compound 42]	100 nM	–
N#CCC(=O)N1CCC12CCCN(c1ncnc3[nH]ccc13)C2 (stereo not drawn) [Compound 3, 3-oxo-3-[6-(7H-pyrrolo[2,3-d]pyrimidin-4-yl)-1,6-diazaspiro[3.5]non-1-yl]-propionitrile]	–	IC50 [2]: 2.2 nM
N#CCC(=O)N1CC(F)(F)C12CCN(c1ncnc3[nH]ccc13)C2 (stereo not drawn) [Compound 4, 3-[3,3-difluoro-6-(7H-pyrrolo[2,3-d]pyrimidin-4-yl)-1,6-diazaspiro[3.4]oct-1-yl]-3-oxopropionitrile]	–	IC50 [2]: 1.7 nM
N#CCC(=O)N1CC(F)(F)C12CCCN(c1ncnc3[nH]ccc13)C2 (stereo not drawn) [Compound 5, 3-[3,3-difluoro-6-(7H-pyrrolo[2,3-d]pyrimidin-4-yl)-1,6-diaza-spiro[3.5]non-1-yl]-3-oxo-propionitrile]	–	IC50 [2]: 1.9 nM
N#CCC(=O)N1CCCC12CCCN(c1ncnc3[nH]ccc13)C2 (stereo not drawn) [Compound 7, 3-oxo-3-[7-(7H-pyrrolo[2.3-d]pyrimidin-4-yl)-1,7-diazaspiro[4.5]dec-1-yl)propionitrile]	–	IC50 [2]: 4.7 nM
CC1N(c2ncnc3[nH]ccc23)CCC12CCCN2C(=O)CC#N (stereo not drawn) [Compound 13]	–	inhibition at 1 µM [1]: 26%
CC1CC2(CCCN(c3ncnc4[nH]ccc34)C2)N1C(=O)CC#N (stereo not drawn) [Compound 14]	41 nM	–
CO[C@H](C)C(=O)N1CCCC12CCCN(c1ncnc3[nH]ccc13)C2 (stereo partly drawn) [Compound 46]	270 nM	–

Now from value to compound, other results behind:

IC50 [1]	SMILES	further results
36 nM	CC1N(c2ncnc3[nH]ccc23)CCC12CCCN2C(=O)CC#N (single isomer, unassigned) [Compound 34]	–
530 nM	CC(O)C(=O)N1CCCC12CCCN(c1ncnc3[nH]ccc13)C2 (single isomer, unassigned) [Compound 35]	–
100 nM	CC1CC2(CCCN(c3ncnc4[nH]ccc34)C2)N1C(=O)CC#N (stereo not drawn) [Compound 20]	–
40 nM	C[C@H](O)C(=O)N1CCCC12CCCN(c1ncnc3[nH]ccc13)C2 (stereo partly drawn) [Compound 43]	–
270 nM	CO[C@@H](C)C(=O)N1CCCC12CCCN(c1ncnc3[nH]ccc13)C2 (stereo partly drawn) [Compound 45]	–
110 nM	CC(=O)O[C@@H](C)C(=O)N1CCCC12CCCN(c1ncnc3[nH]ccc13)C2 (stereo partly drawn) [Compound 47]	–
